According to patent publication US6689773B2, “Uracil substituted phenyl sulfamoyl carboxamides” (BASF Aktiengesellschaft, priority 2000, dated 2004):

Columns and labels:
Format in all cases: in vivo
[1] = test system: DIGSA, Crabgrass, (Hairy) L, Digitaria sanguinalis, (L)Scop; assay: Postemergence herbicidal evaluation (Example 147); conditions: rating scale 0-9, two to three weeks after treatment
Method: (§1) Seedling plants were grown in jiffy flats for about two weeks. The test compounds were dispersed in 80/20 acetone/water mixtures containing 1.0% SUN-IT®II, a methylated seed oil, in sufficient quantities to provide the equivalent of about 0.016 to 0.032 kg per hectare of active compound when applied to the plants through a spray nozzle operating at 40 psi for a predetermined time. After spraying, the plants were placed on greenhouse benches and were cared for in accordance with conventional greenhouse procedures. Approximately two to three weeks after treatment, the seedling plants were examined and rated according to the rating scale (0-9) set forth below. Where more than one test is involved for a given compound, the data are averaged. [table] The scale is based upon a visual observation of plant stand, vigor, malformation, size, chlorosis and overall plant appearance as compared with a control. Plant species employed in these evaluations are reported by header abbreviation, common name and scientific name. [table]

[2] = test system: AMBEL, Ragweed, Common, Ambrosia artemiisifolia, L.; assay: Postemergence herbicidal evaluation (Example 147); conditions: rating scale 0-9, two to three weeks after treatment
Method: as §1

[3] = test system: ALOMY, Blackgrass, Alopecurus myosuroides; assay: Postemergence herbicidal evaluation (Example 147); conditions: rating scale 0-9, two to three weeks after treatment
Method: as §1

[4] = test system: ZEAMX, Field corn, Zea mays L.; assay: Postemergence herbicidal evaluation (Example 147); conditions: rating scale 0-9, two to three weeks after treatment
Method: as §1

[5] = test system: GLXMA, Soybean, Glycine max, (L.) Merr.; assay: Postemergence herbicidal evaluation (Example 147); conditions: rating scale 0-9, two to three weeks after treatment
Method: as §1

[6] = test system: ECHCG, Barnyardgrass, Echinochloa crusgalli, (L.)Beau; assay: Postemergence herbicidal evaluation (Example 147); conditions: rating scale 0-9, two to three weeks after treatment
Method: as §1

[7] = test system: IPOHE, Morningglory, Ivyleaf, Ipomoea hederacea, (L)Jacq.; assay: Postemergence herbicidal evaluation (Example 147); conditions: rating scale 0-9, two to three weeks after treatment
Method: as §1

[8] = test system: ABUTH, Velvetleaf, Abutilon theophrasti, Medic.; assay: Postemergence herbicidal evaluation (Example 147); conditions: rating scale 0-9, two to three weeks after treatment
Method: as §1

[9] = test system: CHEAL, Lambsquarters, Chenopodium album, L. Common; assay: Postemergence herbicidal evaluation (Example 147); conditions: rating scale 0-9, two to three weeks after treatment
Method: as §1

[10] = test system: TRZAW, Winter wheat, Tritium Aestivum, L. (Winter); assay: Postemergence herbicidal evaluation (Example 147); conditions: rating scale 0-9, two to three weeks after treatment
Method: as §1

[11] = test system: SETVI, Green foxtail, Setaria viridis, (L.)Beau; assay: Postemergence herbicidal evaluation (Example 147); conditions: rating scale 0-9, two to three weeks after treatment
Method: as §1

[12] = test system: XANST, Cocklebur, Xanthium strumariam; assay: Preemergence herbicidal evaluation (Example 148); conditions: rating scale 0-9, two to four weeks after treatment
Method: (§2) The scale is based upon a visual observation of plant stand, vigor, malformation, size, chlorosis and overall plant appearance as compared with a control.
(§3) The herbicidal activity of the compounds of the present invention was evaluated by the following tests wherein the seeds of a variety of monocotyledonous and dicotyledonous plants were separately mixed with potting soil and planted on top of approximately one inch of soil in separate pint cups. After planting, the cups were sprayed with the selected aqueous acetone solution containing test compound in sufficient quantity to provide the equivalent of about 0.125 to 0.250 kg per hectare of test compound per cup. The treated cups were then placed on greenhouse benches, watered and cared for in accordance with conventional greenhouse procedures. From two to four weeks after treatment, the tests were terminated and each cup was examined and rated according to the rating system provided in Example 94. When more than one test was performed for a given compound, the data were averaged.

[13] = test system: DIGSA, Crabgrass, (Hairy) L, Digitaria sanguinalis, (L)Scop; assay: Preemergence herbicidal evaluation (Example 148); conditions: rating scale 0-9, two to four weeks after treatment
Method: as §2, §3

[14] = test system: AMBEL, Ragweed, Common, Ambrosia artemiisifolia, L.; assay: Preemergence herbicidal evaluation (Example 148); conditions: rating scale 0-9, two to four weeks after treatment
Method: as §2, §3

[15] = test system: ALOMY, Blackgrass, Alopecurus myosuroides; assay: Preemergence herbicidal evaluation (Example 148); conditions: rating scale 0-9, two to four weeks after treatment
Method: as §2, §3

[16] = test system: ZEAMX, Field corn, Zea mays L.; assay: Preemergence herbicidal evaluation (Example 148); conditions: rating scale 0-9, two to four weeks after treatment
Method: as §2, §3

[17] = test system: GLXMA, Soybean, Glycine max, (L.) Merr.; assay: Preemergence herbicidal evaluation (Example 148); conditions: rating scale 0-9, two to four weeks after treatment
Method: as §2, §3

[18] = test system: ECHCG, Barnyardgrass, Echinochloa crusgalli, (L.)Beau; assay: Preemergence herbicidal evaluation (Example 148); conditions: rating scale 0-9, two to four weeks after treatment
Method: as §2, §3

[19] = test system: IPOHE, Morningglory, Ivyleaf, Ipomoea hederacea, (L)Jacq.; assay: Preemergence herbicidal evaluation (Example 148); conditions: rating scale 0-9, two to four weeks after treatment
Method: as §2, §3

[20] = test system: ABUTH, Velvetleaf, Abutilon theophrasti, Medic.; assay: Preemergence herbicidal evaluation (Example 148); conditions: rating scale 0-9, two to four weeks after treatment
Method: as §2, §3

[21] = test system: CHEAL, Lambsquarters, Chenopodium album, L. Common; assay: Preemergence herbicidal evaluation (Example 148); conditions: rating scale 0-9, two to four weeks after treatment
Method: as §2, §3

[22] = test system: TRZAW, Winter wheat, Tritium Aestivum, L. (Winter); assay: Preemergence herbicidal evaluation (Example 148); conditions: rating scale 0-9, two to four weeks after treatment
Method: as §2, §3

[23] = test system: SETVI, Green foxtail, Setaria viridis, (L.)Beau; assay: Preemergence herbicidal evaluation (Example 148); conditions: rating scale 0-9, two to four weeks after treatment
Method: as §2, §3

CN(c1ccccc1)S(=O)(=O)NC(=O)c1cc(-n2c(=O)cc(C(F)(F)F)n(C)c2=O)c(F)cc1Cl [Example 73]
Postemergence herbicidal rating DIGSA ([1]; rate 0.016 kg/ha): 4.0
Postemergence herbicidal rating DIGSA ([1]; rate 0.032 kg/ha): 6.0
Postemergence herbicidal rating AMBEL ([2]; rate 0.016 kg/ha): 9.0
Postemergence herbicidal rating AMBEL ([2]; rate 0.032 kg/ha): 9.0
Postemergence herbicidal rating ALMOY ([3]; rate 0.016 kg/ha): 2.0
Postemergence herbicidal rating ALMOY ([3]; rate 0.032 kg/ha): 3.0
Postemergence herbicidal rating ZEAMX ([4]; rate 0.016 kg/ha): 7.0
Postemergence herbicidal rating ZEAMX ([4]; rate 0.032 kg/ha): 7.5
Postemergence herbicidal rating GLXMA ([5]; rate 0.016 kg/ha): 8.5
Postemergence herbicidal rating GLXMA ([5]; rate 0.032 kg/ha): 8.5
Postemergence herbicidal rating ECHCG ([6]; rate 0.016 kg/ha): 4.0
Postemergence herbicidal rating ECHCG ([6]; rate 0.032 kg/ha): 7.0
Postemergence herbicidal rating IPOHE ([7]; rate 0.016 kg/ha): 9.0
Postemergence herbicidal rating IPOHE ([7]; rate 0.032 kg/ha): 9.0
Postemergence herbicidal rating ABUTH ([8]; rate 0.016 kg/ha): 9.0
Postemergence herbicidal rating ABUTH ([8]; rate 0.032 kg/ha): 9.0
Postemergence herbicidal rating CHEAL ([9]; rate 0.016 kg/ha): 8.0
Postemergence herbicidal rating CHEAL ([9]; rate 0.032 kg/ha): 9.0
Postemergence herbicidal rating TRZAW ([10]; rate 0.016 kg/ha): 5.5
Postemergence herbicidal rating TRZAW ([10]; rate 0.032 kg/ha): 6.5
Postemergence herbicidal rating SETVI ([11]; rate 0.016 kg/ha): 4.0
Postemergence herbicidal rating SETVI ([11]; rate 0.032 kg/ha): 5.0
Preemergence herbicidal rating XANST ([12]; rate 0.125 kg/ha): 3.0
Preemergence herbicidal rating XANST ([12]; rate 0.25 kg/ha): 9.0
Preemergence herbicidal rating DIGSA ([13]; rate 0.125 kg/ha): 3.0
Preemergence herbicidal rating DIGSA ([13]; rate 0.25 kg/ha): 3.0
Preemergence herbicidal rating AMBEL ([14]; rate 0.125 kg/ha): 9.0
Preemergence herbicidal rating AMBEL ([14]; rate 0.25 kg/ha): 9.0
Preemergence herbicidal rating ALMOY ([15]; rate 0.125 kg/ha): 0.0
Preemergence herbicidal rating ALMOY ([15]; rate 0.25 kg/ha): 0.0
Preemergence herbicidal rating ZEAMX ([16]; rate 0.125 kg/ha): 0.0
Preemergence herbicidal rating ZEAMX ([16]; rate 0.25 kg/ha): 0.0
Preemergence herbicidal rating GLXMA ([17]; rate 0.125 kg/ha): 0.0
Preemergence herbicidal rating GLXMA ([17]; rate 0.25 kg/ha): 0.0
Preemergence herbicidal rating ECHCG ([18]; rate 0.125 kg/ha): 0.0
Preemergence herbicidal rating ECHCG ([18]; rate 0.25 kg/ha): 3.0
Preemergence herbicidal rating IPOHE ([19]; rate 0.125 kg/ha): 9.0
Preemergence herbicidal rating IPOHE ([19]; rate 0.25 kg/ha): 9.0
Preemergence herbicidal rating ABUTH ([20]; rate 0.125 kg/ha): 9.0
Preemergence herbicidal rating ABUTH ([20]; rate 0.25 kg/ha): 9.0
Preemergence herbicidal rating CHEAL ([21]; rate 0.125 kg/ha): 9.0
Preemergence herbicidal rating CHEAL ([21]; rate 0.25 kg/ha): 9.0
Preemergence herbicidal rating TRZAW ([22]; rate 0.125 kg/ha): 0.0
Preemergence herbicidal rating TRZAW ([22]; rate 0.25 kg/ha): 0.0
Preemergence herbicidal rating SETVI ([23]; rate 0.125 kg/ha): 2.0
Preemergence herbicidal rating SETVI ([23]; rate 0.25 kg/ha): 5.0
